From publication PMC11219936, “Development of radioiodine-labeled mequitazine for evaluation of hepatic CYP2D activity” (Frontiers in Pharmacology, 2024)

Assays:
[1] = tested on: ^125I-BMQ-metabolizing CYP isoenzymes (pooled MLMs); experiment: Inhibition of ^125I-BMQ metabolism by specific CYP inhibitors and mequitazine in pooled MLMs; conditions: for percentage of metabolites produced from ^125I-BMQ: 37°C, 15 min; for inhibition at 15 min, 10 µM: mouse, pooled mouse liver microsomes, pH 7.4, probe ^125I-BMQ
Method: These specific inhibitors were used to identify the CYPs involved in the biotransformation of ^125I-BMQ. The inhibitors and mequitazine (self-inhibitor) were dissolved at a concentration of 10 μM (0.8% [v/v] final concentration DMSO).
Samples were incubated at 37°C for 15 min with gentle shaking, and the reaction was stopped by addition of 100 µL of ethanol and centrifugation at 18,000 g for 5 min. The final supernatant was analyzed by TLC using methanol/acetic acid at a 100:1 ratio. The percentages of ^125I-BMQ metabolites in each sample were then calculated (n = 3).

[2] = Preliminary study: effect of intraperitoneal paroxetine on hepatobiliary excretion of ^99mTc-PMT, SPECT dynamic imaging; conditions: CYP2D-inhibited mice, probe ^99mTc-PMT
Method: SPECT imaging of ^123I-BMQ was performed to visualize the accumulation of radioactive metabolite for the purpose of assessing CYP2D activity. […] In a preliminary study, the effect of intraperitoneal administration of paroxetine on hepatobiliary excretion was investigated.

[3] = Metabolism of ^125I-BMQ in vivo: TLC analysis of radioactive products in bile; design: species or system mouse
Method: ^125I-BMQ was prepared to a specific radioactivity of 10 MBq/mL by adding saline and injected via tail vein into three mice (2.0 MBq/200 µL/mouse). […] Radioactive products in the bile were analyzed by TLC using chloroform/acetic acid/H2O at a ratio of 60:40:1. Bile was spotted directly onto the TLC plate.

[4] = tested on: CYP (pooled mouse liver microsomes, MLMs); experiment: NADPH-mediated metabolism of ^125I-BMQ in pooled mouse liver microsomes, TLC analysis; type: in vitro ADME; conditions: 37°C, increase with reaction time
Method: Animal studies were approved by the Animal Care Committee at Kanazawa University (AP-173851) and conducted in accordance with international standards for animal welfare and institutional guidelines. For preparation of pooled mouse liver microsomes (MLMs), three 6-week-old male ddY mice (Japan SLC, Tokyo, Japan) were euthanized under anesthesia using isoflurane. The liver of each mouse was removed and weighed. After adding 3 mL of Krebs-Ringer’s phosphate buffer (pH 7.4) per gram of liver, the livers were pooled and homogenized using an ultrasonic homogenizer (SONIFIER250, Branson, MO, United States). The homogenate was centrifuged for 20 min at 9,000 g, and the supernatant was centrifuged for 60 min at 100,500 g. […] The resulting precipitate was obtained as microsomes, and the protein content was determined according to the bicinchoninic acid method ([Smith et al., 1985]). […]
To analyze CYP-mediated metabolism of ^125I-BMQ, nicotinamide adenine dinucleotide phosphate (NADPH) was used as an energy source for CYP. […] The samples were then centrifuged at 18,000 g for 5 min, and the supernatant of each sample was analyzed by thin layer chromatography (TLC). […] After development and complete drying, the TLC plates were cut into 21 fractions, and the radioactivity associated with each fraction was measured using a γ-ray counter (AccuFLEX γ 7000, Aloka, Tokyo, Japan). […]

[5] = Biological distribution of ^125I-BMQ in normal mice; type: in vivo, mouse; conditions: tail vein injection
Method: ^125I-BMQ was prepared to a specific radioactivity of 185 kBq/mL by adding saline. A total of 20 fasting 6-week-old male ddY mice were injected with ^125I-BMQ into the tail vein (18.5 kBq/100 µL/mouse), and after 2, 10, 30, 60, and 120 min, four mice each were euthanized under isoflurane, and blood, brain, thyroid, lung, heart, liver, gallbladder, stomach, pancreas, spleen, intestine, kidney, and urine tissue were collected. The tissue was weighted and the radioactivity was measured using a γ-ray counter to calculate the injected dose percent (%ID) or injected dose percent per gram of tissue (%ID/g).

[6] = NADPH [+], pooled MLMs, inhibitor 10 μM
[7] = mouse bile after iv injection, gallbladder removed, TLC

c1ccc2c(c1)Sc1ccccc1N2CC1CN2CCC1CC2 (racemic) [mequitazine, 10-[(3RS)-1-azabicyclo [2.2.2]oct-3-ylmethyl]-10H-phenothiazine]
percentage of metabolites produced from ^125I-BMQ [1, 6]: 1.34% | inhibition at 15 min, 10 µM [1]: 94%

Fc1ccc([C@@H]2CCNC[C@H]2COc2ccc3c(c2)OCO3)cc1 [paroxetine]
effect on biliary excretory function [2]: did not affect the biliary excretory function itself | percentage of metabolites produced from ^125I-BMQ [1, 6]: 12.5% | inhibition at 15 min, 10 µM [1]: 42%

C=C[C@H]1C[N@@]2CC[C@H]1C[C@@H]2[C@@H](O)c1ccnc2ccc(OC)cc12 [quinidine]
percentage of metabolites produced from ^125I-BMQ [1, 6]: 4.47% | inhibition at 15 min, 10 µM [1]: 80%

CC(=O)N1CCN(c2ccc(OCC3COC(Cn4ccnc4)(c4ccc(Cl)cc4Cl)O3)cc2)CC1 (stereo not drawn) [ketoconazole]
percentage of ^125I-BMQ compared with NADPH [+] [1, 6]: slightly lower, but not significantly

[125I]c1ccc(C[N+]23CCC(CC2)C(CN2c4ccccc4Sc4ccccc42)C3)cc1 (stereo not drawn) [^125I-BMQ, ^125I-4-iodobenzylmequitazine]
radioactivity in the bile that was radioactive metabolite ([3]; gallbladder removed 60 min after the mice were injected): more than 90% | ^125I-BMQ (parent) in bile [3, 7]: no ^125I-BMQ was detected | percentage of metabolites of ^125I-BMQ in bile [3, 7]: > 90% | percentage of metabolites ([1]; NADPH [−], pooled MLMs, no inhibitor): 2.64% | percentage of radioactive metabolite [4]: 3%–25% | Biological distribution, Blood ([5]; 2 min): 1.71 ± 0.40 %ID/g | Biological distribution, Brain ([5]; 2 min): 0.12 ± 0.02 %ID/g | Biological distribution, Gall bladder ([5]; 2 min): 4.16 ± 4.04 %ID/g | Biological distribution, Heart ([5]; 2 min): 0.78 ± 0.14 %ID/g | Biological distribution, Intestines ([5]; 2 min): 1.52 ± 0.17 %ID/organ | Biological distribution, Kidney ([5]; 2 min): 8.04 ± 0.39 %ID/g | Biological distribution, Liver ([5]; 2 min): 10.58 ± 0.30 %ID/g | Biological distribution, Lung ([5]; 2 min): 0.77 ± 0.12 %ID/g | Biological distribution, Pancreas ([5]; 2 min): 0.51 ± 0.05 %ID/g | Biological distribution, Spleen ([5]; 2 min): 0.46 ± 0.11 %ID/g | Biological distribution, Stomach ([5]; 2 min): 0.14 ± 0.01 %ID/organ | Biological distribution, Thyroid ([5]; 2 min): 1.19 ± 0.23 %ID/g | Biological distribution, Urine ([5]; 2 min): 0.10 ± 0.10 %ID/organ | Biological distribution, Blood ([5]; 10 min): 0.32 ± 0.07 %ID/g | Biological distribution, Brain ([5]; 10 min): 0.08 ± 0.02 %ID/g | Biological distribution, Gall bladder ([5]; 10 min): 13.28 ± 14.03 %ID/g | Biological distribution, Heart ([5]; 10 min): 0.47 ± 0.11 %ID/g | Biological distribution, Intestines ([5]; 10 min): 3.90 ± 1.55 %ID/organ | Biological distribution, Kidney ([5]; 10 min): 7.84 ± 0.50 %ID/g | Biological distribution, Liver ([5]; 10 min): 10.55 ± 0.48 %ID/g | Biological distribution, Lung ([5]; 10 min): 0.46 ± 0.28 %ID/g | Biological distribution, Pancreas ([5]; 10 min): 0.41 ± 0.03 %ID/g | Biological distribution, Spleen ([5]; 10 min): 0.26 ± 0.01 %ID/g | Biological distribution, Stomach ([5]; 10 min): 1.33 ± 1.08 %ID/organ | Biological distribution, Thyroid ([5]; 10 min): 0.57 ± 0.15 %ID/g | Biological distribution, Urine ([5]; 10 min): 0.06 ± 0.07 %ID/organ | Biological distribution, Blood ([5]; 30 min): 0.30 ± 0.16 %ID/g | Biological distribution, Brain ([5]; 30 min): 0.14 ± 0.10 %ID/g | Biological distribution, Gall bladder ([5]; 30 min): 24.43 ± 6.95 %ID/g | Biological distribution, Heart ([5]; 30 min): 0.52 ± 0.23 %ID/g | Biological distribution, Intestines ([5]; 30 min): 7.06 ± 1.89 %ID/organ | Biological distribution, Kidney ([5]; 30 min): 8.70 ± 1.50 %ID/g | Biological distribution, Liver ([5]; 30 min): 8.45 ± 0.99 %ID/g | Biological distribution, Lung ([5]; 30 min): 0.40 ± 0.20 %ID/g | Biological distribution, Pancreas ([5]; 30 min): 0.63 ± 0.25 %ID/g | Biological distribution, Spleen ([5]; 30 min): 0.24 ± 0.08 %ID/g | Biological distribution, Stomach ([5]; 30 min): 0.42 ± 0.36 %ID/organ | Biological distribution, Thyroid ([5]; 30 min): 1.16 ± 0.60 %ID/g | Biological distribution, Urine ([5]; 30 min): 0.30 ± 0.26 %ID/organ | Biological distribution, Blood ([5]; 60 min): 0.11 ± 0.01 %ID/g | Biological distribution, Brain ([5]; 60 min): 0.05 ± 0.01 %ID/g | Biological distribution, Gall bladder ([5]; 60 min): 23.28 ± 9.55 %ID/g | Biological distribution, Heart ([5]; 60 min): 1.00 ± 0.13 %ID/g | Biological distribution, Intestines ([5]; 60 min): 14.26 ± 1.26 %ID/organ | Biological distribution, Kidney ([5]; 60 min): 18.07 ± 2.42 %ID/g | Biological distribution, Liver ([5]; 60 min): 6.61 ± 0.90 %ID/g | Biological distribution, Lung ([5]; 60 min): 0.55 ± 0.13 %ID/g | Biological distribution, Pancreas ([5]; 60 min): 0.84 ± 0.29 %ID/g | Biological distribution, Spleen ([5]; 60 min): 0.86 ± 0.12 %ID/g | Biological distribution, Stomach ([5]; 60 min): 0.63 ± 0.41 %ID/organ | Biological distribution, Thyroid ([5]; 60 min): 1.03 ± 0.21 %ID/g | Biological distribution, Urine ([5]; 60 min): 0.47 ± 0.55 %ID/organ | Biological distribution, Blood ([5]; 120 min): 0.09 ± 0.01 %ID/g | Biological distribution, Brain ([5]; 120 min): 0.05 ± 0.01 %ID/g | Biological distribution, Gall bladder ([5]; 120 min): 28.93 ± 14.65 %ID/g | Biological distribution, Heart ([5]; 120 min): 0.92 ± 0.11 %ID/g | Biological distribution, Intestines ([5]; 120 min): 16.36 ± 1.01 %ID/organ | Biological distribution, Kidney ([5]; 120 min): 16.10 ± 2.91 %ID/g | Biological distribution, Liver ([5]; 120 min): 6.02 ± 1.23 %ID/g | Biological distribution, Lung ([5]; 120 min): 0.36 ± 0.06 %ID/g | Biological distribution, Pancreas ([5]; 120 min): 0.73 ± 0.26 %ID/g | Biological distribution, Spleen ([5]; 120 min): 0.83 ± 0.32 %ID/g | Biological distribution, Stomach ([5]; 120 min): 0.44 ± 0.07 %ID/organ | Biological distribution, Thyroid ([5]; 120 min): 1.14 ± 0.08 %ID/g | Biological distribution, Urine ([5]; 120 min): 0.11 ± 0.01 %ID/organ
